Target: T1, Human heart chymase (Homo sapiens, UniProt P23946)
T1 construct: Human heart chymase was purified according to the method of Urata et al; from tissue; host or cells: human heart
T1 sequence (P23946 22-247): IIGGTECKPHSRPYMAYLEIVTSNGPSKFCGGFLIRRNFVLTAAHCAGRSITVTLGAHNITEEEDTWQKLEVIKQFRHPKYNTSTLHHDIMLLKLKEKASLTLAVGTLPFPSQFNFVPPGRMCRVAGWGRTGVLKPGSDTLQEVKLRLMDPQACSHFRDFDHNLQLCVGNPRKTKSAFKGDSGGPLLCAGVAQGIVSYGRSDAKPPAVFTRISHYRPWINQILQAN
Assay: Measurement of chymase inhibitory activity
Format: biochemical
Settings: purified human heart chymase, substrate Suc-Ala-Ala-Pro-Phe-MCA, pH 7.5, 30° C., 10 min preincubation
Protocol: Human heart chymase was purified according to the method of Urata et al. (J. Biol. Chem., 1990, 265, 22348). The inhibitory activity of the quinazoline derivatives of the present invention with respect to chymase was measured in the following manner. That is, the purified enzyme solution was diluted to a suitable concentration with 0.1M tris-hydrochloride buffer (pH=7.5), 1M sodium chloride, and 0.01% TritonX-100 to In obtain an enzyme solution. A 10 mM dimethyl sulfoxide (hereinafter referred to as DMSO) solution of Suc-Ala-Ala-Pro-Phe-MCA (Peptide Institute) was diluted 20-fold at the time of use by 0.1M tris-hydrochlorate, 1M sodium chloride, and 0.01% TritonX-100 to obtain the substrate solution.
75 μl of the enzyme solution warmed to 30° C. was mixed with 5 μl of DMSO solution of the test sample. The mixture was preincubated at 30° C. for 10 minutes. Next, 20 μl of a substrate solution warmed to 30° C. was mixed with the test sample-enzyme mixture and incubated at 30° c. After 10 minutes, 50 μl of 30% acetic acid was added to stop the enzymatic reaction. The amount of the AMC produced was quantified using a fluorescent photometer. At the same time, a blind test was carried out by adding, instead of the test sample solution, 5 μl of DMSO and performing the same reaction. […]

SMILES | IC50
CC(C(=O)O)C(=O)Nc1cccc(S(=O)(=O)n2c(=O)[nH]c3cc(Cl)ccc3c2=O)c1 (centres unmarked) [Example 13, 2-{3-[(7-chloro-2,4(1H,3H)-quinazolinedion-3-yl)sulfonyl]phenylaminocarbonyl}propionic acid] | 0.3 µM

Tested on: human chymase induced vascular permeability
Assay: Test of human chymase induced vascular permeability exacerbation reaction
Format: in vivo, Wister male rats
Settings: 10 mg/kg orally, 30 minutes before intracutaneous human chymase (20 mU), rat back skin, Evans Blue
Protocol: Wister male rats (body weight 200 to 220 g, Charles River Japan) were used. In the backs of the rats from which the hair had been shaved off, 100 μl (20 mU: 1U being amount of enzyme for producing 1 nmol of AMC in 1 minute from Suc-Ala-Ala-Pro-Phe-MCA at pH7.5 and 30° C.) of a solution of the human chymase enzyme solution purified in evaluation Example 1 diluted 100-fold by PBS (phosphate buffered saline) was injected intracutaneously, then immediately thereafter a 0.5% (w/w) Evans Blue solution was administered from the tail artery. After 30 minutes, the rats were sacrificed by draining their blood under anesthesia with ether and the amount of dye leaking out to the back skin was measured. The region of the skin where the dye leaked out was cut off and 1.0 ml of 1N KOH solution was added and the resultant mixture was allowed to stand at 37° C. overnight. Next, 4 ml of an acetone-0.6N phosphoric acid (13:5) mixture was added to extract the dye. The absorbance at 650 nm of the supernatant was measured. […]
Next, 10 mg/kg of the compound of Example 18 was orally administered. 30 minutes later, 100 μl (20 mU) of human chymase the same as the non-drug administered group was injected intracutaneously and the amount of dye leaked out similarly measured. The rate of suppression of the amount of dye leakage due to the compound was calculated according to the following calculation formula. […]

SMILES | Rate of suppression of amount of leakage of dye
Nc1cc(S(=O)(=O)n2c(=O)[nH]c3cc(Cl)ccc3c2=O)ccc1C(=O)[O-].[Na+] [Example 18, 4-[(7-chloro-2,4(1H,3H)-quinazolinedion-3-yl)sulfonyl]anthranilic acid monosodium salt] | 64%

Tested on: not given
Assay: not given
Settings: human, plasma, pH 7.2

SMILES | t1/2
CC(C(=O)O)C(=O)Nc1cccc(S(=O)(=O)n2c(=O)[nH]c3cc(Cl)ccc3c2=O)c1 (centres unmarked) [Example 13, 2-{3-[(7-chloro-2,4(1H,3H)-quinazolinedion-3-yl)sulfonyl]phenylaminocarbonyl}propionic acid] | 1.62 h

Tested on: not listed separately
Assay: Test of stability in human plasma
Settings: pH 7.2
Protocol: Human plasma was diluted two-fold with 50 mM sodium phosphate buffer (pH=7.2) for use as the test plasma solution. The test sample was made a DMSO solution of 1 mM concentration.
198 μl of the above two-fold diluted plasma solution warmed to 37° C. was added to 2 μl of the test sample DMSO solution and the resultant mixture was stirred and incubated at 37° C. After 0, 5, and 15 minutes, 800 μl of acetonitrile was mixed with the test sample-plasma mixture to remove the protein, then a centrifugation operation (12,000 rpm, 1 minute) was carried out and the supernatant obtained. This was diluted two-fold with distilled water and measured for of the test sample by HPLC analysis.
For the rate of recovery from the plasma, the rates of recovery at different times were calculated based on a calibration line of the test sample in a DMSO standard solution. The half-life (t1/2) in plasma was calculated by exponential recurrence analysis from the rates of recovery of these different times.

half-life at 10 µM | SMILES
0.483 h | Nc1cc(S(=O)(=O)n2c(=O)[nH]c3cc(Cl)ccc3c2=O)ccc1Cl [Example 8, 3-(3-amino-4-chlorobenzenesulfonyl)-7-chloro-2,4(1H,3H)-quinazolinedione]
1.23 h | Nc1cc(S(=O)(=O)n2c(=O)[nH]c3ccc(Cl)cc3c2=O)ccc1C(=O)O [Example 32, 4-[(6-chloro-2,4(1H,3H)-quinazolinedion-3-yl)sulfonyl]anthranilic acid]
4.15 h | Nc1cccc(S(=O)(=O)n2c(=O)[nH]c3cc(Cl)ccc3c2=O)c1 [Example 12, 3-(3-aminobenzenesulfonyl)-7-chloro-2,4(1H,3H)-quinazolinedione]
> 4 h | O=C([O-])c1ccc(S(=O)(=O)n2c(=O)[nH]c3cc(Cl)ccc3c2=O)cc1O.[Na+] [Example 16, 4-[(7-chloro-2,4(1H,3H)-quinazolinedion-3-yl)sulfonyl]salicylic acid monosodium salt]
1.3 h | O=c1[nH]c2cc(Cl)ccc2c(=O)n1S(=O)(=O)c1cccc(O)c1 [Example 1, 7-chloro-3-(3-hydroxybenzenesulfonyl)-2,4(1H,3H)-quinazolinedione]

Further lines, the compound ahead of its results:

SMILES | half-life at 10 µM
COc1ccc2c(=O)n(S(=O)(=O)c3ccc(C(=O)O)c(N)c3)c(=O)[nH]c2c1 [Example 27, 4-[(7-methoxy-2,4(1H,3H)-quinazolinedion-3-yl)sulfonyl]anthranilic acid] | 4.38 h
COc1ccc(S(=O)(=O)n2c(=O)[nH]c3cc(Cl)ccc3c2=O)cc1NS(C)(=O)=O [Example 24, 7-chloro-3-(4-methoxy-3-methylsulfonylaminobenzenesulfonyl)-2,4(1H,3H)-quinazolinedione] | 1.32 h
COc1ccc(S(=O)(=O)n2c(=O)[nH]c3cc(Cl)ccc3c2=O)cc1NC(C)=O [Example 22, 3-(3-acetamide-4-methoxybenzenesulfonyl)-7-chloro-2,4(1H,3H)-quinazolinedione] | 1.73 h
Nc1cc(S(=O)(=O)n2c(=O)[nH]c3cc(Cl)ccc3c2=O)ccc1C(=O)O [Example 17, 4-[(7-chloro-2,4(1H,3H)-quinazolinedion-3-yl)sulfonyl]anthranilic acid] | 4.33 h
CS(=O)(=O)O.Nc1cccc(S(=O)(=O)n2c(=O)[nH]c3cc(Cl)ccc3c2=O)c1 [Example 34, 3-(3-aminobenzenesulfonyl)-7-chloro-2,4-(1H,3H)quinazolinedion methanesulfonic acid salt] | 11.8 h
Nc1ccccc1S(=O)(=O)n1c(=O)[nH]c2cc(Cl)ccc2c1=O [Example 2] | 2.92 h
O=C(O)C1Oc2ccc(S(=O)(=O)n3c(=O)[nH]c4cc(Cl)ccc4c3=O)cc2NC1=O (racemic) [Example 29, (±)-6-[(7-chloro-2,4(1H,3H)-quinazolinedion-3-yl)sulfonyl]-3-oxo-1,4-benzoxazine-2-carboxylic acid] | > 4 h
Nc1cc(S(=O)(=O)n2c(=O)[nH]c3cc(Cl)ccc3c2=O)ccc1C(=O)[O-].[Na+] [Example 18, 4-[(7-chloro-2,4(1H,3H)-quinazolinedion-3-yl)sulfonyl]anthranilic acid monosodium salt] | 1.72 h
Cc1ccc(S(=O)(=O)n2c(=O)[nH]c3cc(Cl)ccc3c2=O)cc1N [Example 10, 3-(3-amino-4-methylbenzenesulfonyl)-7-chloro-2,4(1H,3H)-quinazolinedione] | 2.78 h

Reference: patent publication US6867214B1, “Quinazoline derivatives and pharmaceutical applications thereof” (Daiichi Suntory Pharma Co., Ltd., priority 1998, dated 2005)
